Laboratory results taken from ChEMBL document CHEMBL1146184, “Drug self-association modulates the cellular bioavailability of DNA minor groove-directed terbenzimidazoles” (J Med Chem, 2006).

What was measured:
Format in all cases: ADME, cell-based
RPMI 8402 [1] = assay: Uptake in human RPMI8402 cells at 1 uM after 0.5 hrs; conditions: rpmi 8402, 0.5 h
RPMI 8402 [2] = assay: Uptake in human RPMI8402 cells at 1 uM after 4 hrs; conditions: rpmi 8402, 4 h
RPMI 8402 [3] = assay: Uptake in human RPMI8402 cells at 1 uM after 1 hr; conditions: rpmi 8402, 1 h
RPMI 8402 [4] = assay: Uptake in human RPMI8402 cells at 1 uM after 2 hrs; conditions: rpmi 8402, 2 h

Row | Drug uptake (RPMI 8402 [1]) | Drug uptake (RPMI 8402 [2]) | Drug uptake (RPMI 8402 [3]) | Drug uptake (RPMI 8402 [4]) | Compound
1 | 18% | 30% |  |  | c1ccc(-c2ccc3[nH]c(-c4ccc5[nH]c(-c6ccc7cc[nH]c7c6)nc5c4)nc3c2)cc1
2 | 3% | 3% | 3% | 3% | c1ccc(-c2ccc3[nH]c(-c4ccc5[nH]c(-c6ccc7[nH]cnc7c6)nc5c4)nc3c2)cc1
